Measured values: patent US11566007B2, “Ras inhibitors” (Revolution Medicines, Inc., priority 2019, dated 2023)

Columns and labels:
Assay type in all cases: biochemical
[1] = biological target: KRAS G12S (Homo sapiens (Human), UniProt P01116+P62937, G12S); test: Ras-Raf (BRAF RBD) disruption / FRET / MOA assay, KRAS G12S; conditions: Ras-Raf disruption/FRET/MOA assay; class symbols; read-out: KRAS G12S FRET data IC50
Procedure, shortened: (§1)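 Ras:RAF disruption was scored as a fall in TR-FRET ratio relative to DMSO. Compound ranged in 3-fold steps over 10 points from 30 μM final; incubation ran 3 h at 25° C, detection antibodies a further 1.5 h. Reported as IC50.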

[2] = biological target: KRAS G12D (Homo sapiens (Human), UniProt P01116+P62937, G12D); test: Ras-Raf (BRAF RBD) disruption / FRET / MOA assay, KRAS G12D; conditions: Ras-Raf disruption/FRET/MOA assay; class symbols; read-out: KRAS G12D FRET data IC50
KRAS G12D, sequence (P01116-2 other isoform, or with tags, fused parts or gaps G12D): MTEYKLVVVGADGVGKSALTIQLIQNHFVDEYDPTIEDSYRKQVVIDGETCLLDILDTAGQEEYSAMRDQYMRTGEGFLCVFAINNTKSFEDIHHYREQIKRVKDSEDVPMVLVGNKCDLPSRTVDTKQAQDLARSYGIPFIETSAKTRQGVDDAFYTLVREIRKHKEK
KRAS G12D, sequence (P62937 whole entry): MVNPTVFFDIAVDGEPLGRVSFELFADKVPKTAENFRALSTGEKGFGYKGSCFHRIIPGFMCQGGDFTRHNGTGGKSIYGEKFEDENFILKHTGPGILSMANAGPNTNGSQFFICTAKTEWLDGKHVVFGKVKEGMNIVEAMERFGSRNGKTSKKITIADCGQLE
Procedure, shortened: as §1

[3] = biological target: K-Ras G13C (Homo sapiens (Human), UniProt P01116+P62937, G13C); test: Ras-Raf (BRAF RBD) disruption / FRET / MOA assay, KRAS G13C; conditions: KRAS G13C; Ras-Raf disruption/FRET/MOA assay; read-out: IC50* KRAS G13C FRET data
K-Ras G13C, sequence (P01116-2 other isoform, or with tags, fused parts or gaps G13C): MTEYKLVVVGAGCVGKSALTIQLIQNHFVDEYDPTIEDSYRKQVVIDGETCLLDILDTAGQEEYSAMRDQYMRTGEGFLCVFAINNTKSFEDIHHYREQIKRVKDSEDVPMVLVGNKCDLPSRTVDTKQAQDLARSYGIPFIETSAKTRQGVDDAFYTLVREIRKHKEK
K-Ras G13C, sequence (P62937 whole entry): as the sequence (P62937 whole entry) above
Procedure, shortened: as §1

[4] = biological target: NRAS WT (Homo sapiens (Human), UniProt P01111+P62937); test: Ras-Raf (BRAF RBD) disruption / FRET / MOA assay, NRAS WT; conditions: read-out: IC50* NRAS WT FRET data
NRAS WT, sequence (P01111 whole entry): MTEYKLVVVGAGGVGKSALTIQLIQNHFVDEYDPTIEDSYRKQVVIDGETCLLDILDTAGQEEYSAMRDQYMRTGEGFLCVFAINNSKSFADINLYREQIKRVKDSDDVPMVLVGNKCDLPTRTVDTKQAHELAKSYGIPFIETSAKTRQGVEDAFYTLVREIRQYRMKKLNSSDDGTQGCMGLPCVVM
NRAS WT, sequence (P62937 whole entry): as the sequence (P62937 whole entry) above
Procedure, shortened: (§2)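 TR-FRET disruption of nucleotide-loaded Ras binding to BRAF RBD via compound-driven ternary complex with cyclophilin A. Compound as 10-point 3-fold series from 30 μM final, 3 h at 25° C, then anti-His Eu-W1024 (10 nM) and anti-GST allophycocyanin (50 nM) for 1.5 h. IC50 from decreased FRET ratio versus DMSO.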

[5] = biological target: NRAS G12C (Homo sapiens (Human), UniProt P01111+P62937, G12C); test: Ras-Raf (BRAF RBD) disruption / FRET / MOA assay, NRAS G12C; conditions: read-out: IC50* NRAS G12C FRET data
NRAS G12C, sequence (P01111 whole entry G12C): as the sequence (P01111 whole entry) above, with G12C counted along it
NRAS G12C, sequence (P62937 whole entry): as the sequence (P62937 whole entry) above
Procedure, shortened: as §1

[6] = biological target: KRAS Q61H (Homo sapiens (Human), UniProt P01116+P62937, Q61H); test: Ras-Raf (BRAF RBD) disruption / FRET / MOA assay, KRAS Q61H; conditions: Ras-Raf disruption/FRET/MOA assay; class symbols; read-out: KRAS Q61H FRET data IC50
KRAS Q61H, sequence (P01116-2 other isoform, or with tags, fused parts or gaps Q61H): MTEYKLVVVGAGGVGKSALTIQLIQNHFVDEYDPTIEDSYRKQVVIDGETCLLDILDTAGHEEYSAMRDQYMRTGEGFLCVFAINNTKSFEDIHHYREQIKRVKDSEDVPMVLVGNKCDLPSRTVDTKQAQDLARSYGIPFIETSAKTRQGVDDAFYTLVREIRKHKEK
KRAS Q61H, sequence (P62937 whole entry): as the sequence (P62937 whole entry) above
Procedure, shortened: as §2

[7] = biological target: NRAS Q61K (Homo sapiens (Human), UniProt P01111+P62937, Q61K); test: Ras-Raf (BRAF RBD) disruption / FRET / MOA assay, NRAS Q61K; conditions: NRAS Q61K; Ras-Raf disruption/FRET/MOA assay; read-out: IC50* NRAS Q61K FRET data
NRAS Q61K, sequence (P01111 whole entry Q61K): as the sequence (P01111 whole entry) above, with Q61K counted along it
NRAS Q61K, sequence (P62937 whole entry): as the sequence (P62937 whole entry) above
Procedure, shortened: as §2

[8] = biological target: NRAS Q61R (Homo sapiens (Human), UniProt P01111+P62937, Q61R); test: Ras-Raf (BRAF RBD) disruption / FRET / MOA assay, NRAS Q61R; conditions: NRAS Q61R; Ras-Raf disruption/FRET/MOA assay; read-out: IC50* NRAS Q61R FRET data
NRAS Q61R, sequence (P01111 whole entry Q61R): as the sequence (P01111 whole entry) above, with Q61R counted along it
NRAS Q61R, sequence (P62937 whole entry): as the sequence (P62937 whole entry) above
Procedure, shortened: as §2

[9] = biological target: KRAS WT (Homo sapiens (Human), UniProt P01116+P62937); test: Ras-Raf (BRAF RBD) disruption / FRET / MOA assay, KRAS WT; conditions: read-out: IC50* KRAS WT FRET data
KRAS WT, sequence (P01116-2 other isoform, or with tags, fused parts or gaps): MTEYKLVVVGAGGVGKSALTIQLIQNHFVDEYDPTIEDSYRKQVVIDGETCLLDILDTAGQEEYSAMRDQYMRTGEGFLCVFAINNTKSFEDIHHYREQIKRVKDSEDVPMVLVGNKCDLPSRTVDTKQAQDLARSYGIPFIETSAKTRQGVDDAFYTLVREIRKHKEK
KRAS WT, sequence (P62937 whole entry): as the sequence (P62937 whole entry) above
Procedure, shortened: as §1

KRAS G12S, sequence (P01116-2 other isoform, or with tags, fused parts or gaps G12S): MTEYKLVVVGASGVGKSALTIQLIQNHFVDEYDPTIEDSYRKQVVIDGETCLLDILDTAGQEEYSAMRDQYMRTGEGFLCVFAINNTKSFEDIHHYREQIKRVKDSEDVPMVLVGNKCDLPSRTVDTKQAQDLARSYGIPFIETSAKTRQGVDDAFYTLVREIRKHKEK
KRAS G12S, sequence (P62937 whole entry): as the sequence (P62937 whole entry) above

Row | Structure (SMILES) | IC50 [1] [nM] | IC50 [2] [nM] | IC50 [3] [nM] | IC50 [4] [nM] | IC50 [5] [nM] | IC50 [6] [nM] | IC50 [7] [nM] | IC50 [8] [nM] | IC50 [9] [nM]
1 | C=CC(=O)N1CC[C@H](C(=O)N(C)[C@H](C(=O)N[C@H]2CC3=NC=C(O3)c3ccc4c(c3)c(c(-c3cccnc3[C@H](C)OC)n4CC)CC(C)(C)COC(=O)[C@@H]3CCCN(N3)C2=O)C(C)C)C1 (atropisomer, axis not shown) [Example A278] | 1000 to 10000 | > 10000 | 1000 to 10000 | 1000 to 10000 | 100 to 1000 | 1000 to 10000 | 1000 to 10000 | > 10000 | 1000 to 10000
2 | CCn1c(-c2cccnc2[C@H](C)OC)c2c3cc(ccc31)-c1cccc(c1)C[C@H](NC(=O)[C@H](C(C)C)N(C)C(=O)[C@H]1CCN(C(=O)C#CC(C)(C)N(C)C)C1)C(=O)N1CCC[C@H](N1)C(=O)OCC(C)(C)C2 (atropisomer, axis not shown) [Example A290] | 1000 to 10000 | > 10000 | 1000 to 10000 | 1000 to 10000 | < 10 | 1000 to 10000 | 1000 to 10000 | 1000 to 10000 | 1000 to 10000
3 | C=CS(=O)(=O)N1CCC2(CCN([C@H](C(=O)N[C@H]3Cc4cc(O)cc(c4)-c4ccc5c(c4)c(c(-c4cccnc4[C@H](C)OC)n5CC)CC(C)(C)COC(=O)[C@@H]4CCCN(N4)C3=O)C(C)C)C2=O)CC1 (atropisomer, axis not shown) [Example A299] | 10 to 100 | 1000 to 10000 | < 10 | 10 to 100 | < 10 | < 10 | 10 to 100 | 100 to 1000 | 10 to 100
4 | CO[C@@H](C)c1ncccc1-c1c2c3cc(ccc3n1CC(F)(F)F)-c1csc(n1)C[C@H](NC(=O)[C@@H](COC1CN(C(=O)C#CC(C)(C)N(C)C)C1)C(C)C)C(=O)N1CCC[C@H](N1)C(=O)OCC(C)(C)C2 (atropisomer, axis not shown) [Example A343] | 1000 to 10000 | > 10000 | 1000 to 10000 | 1000 to 10000 | < 10 | 1000 to 10000 | 1000 to 10000 | 1000 to 10000 | 1000 to 10000
5 | C=CC(=O)N1CC[C@H](C(=O)N(C)[C@H](C(=O)N[C@H]2Cc3cc(cc(C(F)F)c3)-c3ccc4c(c3)c(c(-c3cc(N5CCN(C)CC5)cnc3[C@H](C)OC)n4CC(F)(F)F)CC(C)(C)COC(=O)[C@@H]3CCCN(N3)C2=O)C(C)C)C1 (atropisomer, axis not shown) [Example A357] | 100 to 1000 | 1000 to 10000 | 100 to 1000 | 100 to 1000 | 100 to 1000 | 100 to 1000 | 1000 to 10000 | 100 to 1000 | 100 to 1000
6 | CO[C@@H](C)c1ncccc1-c1c2c3cc(ccc3n1CC(F)(F)F)-c1cccc(c1)C[C@H](NC(=O)[C@@H](COC1CN(C(=O)C#CC(C)(C)N(C)C)C1)C(C)C)C(=O)N1CCC[C@H](N1)C(=O)OCC(C)(C)C2 (atropisomer, axis not shown) [Example A376] | 1000 to 10000 | > 10000 | 1000 to 10000 | 1000 to 10000 | < 10 | 1000 to 10000 | > 10000 | > 10000 | 1000 to 10000
7 | C=CC(=O)N1C[C@H](C)N(C(=O)N(C)[C@H](C(=O)N[C@H]2Cc3nc(cs3)-c3ccc4c(c3)c(c(-c3cccnc3[C@H](C)OC)n4CC)CC(C)(C)COC(=O)[C@@H]3CCCN(N3)C2=O)C(C)C)C[C@@H]1C (atropisomer, axis not shown) [Example A385] | 10 to 100 | 100 to 1000 | 10 to 100 | 10 to 100 | 10 to 100 | 10 to 100 | 10 to 100 | 10 to 100 | 10 to 100
8 | C=CC(=O)N1CCC12CN(C(=O)N(C)[C@H](C(=O)N[C@H]1Cc3nc(cs3)-c3ccc4c(c3)c(c(-c3cccnc3[C@H](C)OC)n4CC)CC(C)(C)COC(=O)[C@@H]3CCCN(N3)C1=O)C(C)C)C2 (atropisomer, axis not shown) [Example A393] | 100 to 1000 | 1000 to 10000 | 100 to 1000 | 100 to 1000 | 100 to 1000 | 100 to 1000 | 100 to 1000 | 100 to 1000 | 100 to 1000
9 | CCn1c(-c2cccnc2[C@H](C)OC)c2c3cc(ccc31)-c1cc(F)cc(c1)C[C@H](NC(=O)[C@@H](COC1CN(C(=O)C#CC(C)(C)N(C)C)C1)C(C)C)C(=O)N1CCC[C@H](N1)C(=O)OCC(C)(C)C2 (atropisomer, axis not shown) [Example A403] | > 10000 | > 10000 | 1000 to 10000 | > 10000 | 10 to 100 | 1000 to 10000 | > 10000 | > 10000 | > 10000
10 | C=CC(=O)N1CC2(CCN2C(=O)N(C)[C@H](C(=O)N[C@H]2Cc3nc(cs3)-c3ccc4c(c3)c(c(-c3cccnc3[C@H](C)OC)n4CC)CC(C)(C)COC(=O)[C@@H]3CCCN(N3)C2=O)C(C)C)C1 (atropisomer, axis not shown) [Example A407] | 100 to 1000 | 100 to 1000 | 100 to 1000 | 10 to 100 | < 10 | 10 to 100 | 10 to 100 | 10 to 100 | 100 to 1000
11 | C=CC(=O)N1CC[C@H](C(=O)N(C)[C@H](C(=O)N[C@H]2CC3=NN=C(O3)c3ccc4c(c3)c(c(-c3cccnc3[C@H](C)OC)n4CC)CC(C)(C)COC(=O)[C@@H]3CCCN(N3)C2=O)C(C)C)C1 (atropisomer, axis not shown) [Example A447] | 1000 to 10000 | > 10000 | 1000 to 10000 | 1000 to 10000 | 100 to 1000 | 1000 to 10000 | > 10000 | > 10000 | 1000 to 10000
12 | C=CC(=O)Nc1ncc(C(=O)N(C)[C@H](C(=O)N[C@H]2Cc3cccc(c3)-c3ccc4c(c3)c(c(-c3cccnc3[C@H](C)OC)n4CC)CC(C)(C)COC(=O)[C@@H]3CCCN(N3)C2=O)C(C)C)n1C (atropisomer, axis not shown) [Example A474] | 1000 to 10000 | > 10000 | < 10 | 1000 to 10000 | < 10 | 100 to 1000 | 1000 to 10000 | 1000 to 10000 | 1000 to 10000
13 | C=CC(=O)N1CC[C@H](C(=O)N2CC[C@H](C)[C@H]2C(=O)N[C@H]2Cc3cccc(c3)-c3ccc4c(c3)c(c(-c3cccnc3[C@H](C)OC)n4CC)CC(C)(C)COC(=O)[C@@H]3CCCN(N3)C2=O)C1 (atropisomer, axis not shown) [Example A494] | > 10000 | > 10000 | 1000 to 10000 | 1000 to 10000 | 100 to 1000 | 100 to 1000 | 1000 to 10000 | 1000 to 10000 | 1000 to 10000
14 | C=CC(=O)N1CC[C@H](C(=O)N2CCCCC[C@H]2C(=O)N[C@H]2Cc3cccc(c3)-c3ccc4c(c3)c(c(-c3cccnc3[C@H](C)OC)n4CC)CC(C)(C)COC(=O)[C@@H]3CCCN(N3)C2=O)C1 (atropisomer, axis not shown) [Example A496] | > 10000 | > 10000 | 1000 to 10000 | 1000 to 10000 | 1000 to 10000 | 1000 to 10000 | 1000 to 10000 | 1000 to 10000 | > 10000
15 | CCn1c(-c2cccnc2[C@H](C)OC)c2c3cc(ccc31)-c1cccc(c1)C[C@H](NC(=O)[C@H](C(C)C)N1CC[C@]3(CCN(C(=O)C#CC(C)(C)N(C)C)C3)C1=O)C(=O)N1CCC[C@H](N1)C(=O)OCC(C)(C)C2 (atropisomer, axis not shown) [Example A534, (2S)-2-((S)-7-(4-(dimethylamino)-4-methylpent-2-ynoyl)-1-oxo-2,7-diazaspiro[4.4]nonan-2-yl)-N-((6^3S,4S)-1^1-ethyl-1^2-(2-((S)-1-methoxyethyl)pyridin-3-yl)-10,10-dimethyl-5,7-dioxo-6^1,6^2,6^3,6^4,6^5,6^6-hexahydro-1^1H-8-oxa-1(5,3)-indola-6(1,3)-pyridazina-2(1,3)-benzenacycloundecaphane-4-yl)-3-methylbutanamide] | 1000 to 10000 | 1000 to 10000 | 100 to 1000 | 1000 to 10000 | < 10 | 100 to 1000 | 1000 to 10000 | 1000 to 10000 | 1000 to 10000
